The record followed here is ChEMBL document CHEMBL1127363, “Structure-activity relationship studies of N-sulfonyl analogs of cocaine: role of ionic interaction in cocaine binding” (J Med Chem, 1994).

Assay [1] concerns the target T1, Sodium-dependent dopamine transporter (Rattus norvegicus, UniProt P23977). In words: Binding affinity was tested by measuring its ability to displace [3H]mazindol binding against dopamine transporter (DAT) of rat striatal membranes.
For assay [2], the species on record is Rattus norvegicus. In words: Compound was tested to inhibit high affinity uptake of [3H]- -Dopamine into striatal nerve endings (synaptosomes). The class given is functional, Brain.
For assay [3], the target named is T1, Sodium-dependent dopamine transporter. Briefly: Binding affinity was tested by measuring its ability to displace [3H]-mazindol binding against dopamine transporter (DAT) of rat striatal membranes.
For assay [4], the species on record is Rattus norvegicus. Briefly: Compound was tested to inhibit high affinity uptake of [3H]- -dopamine into striatal nerve endings (synaptosomes). It counts as functional, Brain.
Assay [5] is filed under the species Rattus norvegicus. In words: Compound was tested to inhibit high affinity uptake of [3H]dopamine into striatal nerve endings (synaptosomes). It counts as functional, Brain.
Assay [6] deals with Sodium-dependent dopamine transporter (Rattus norvegicus) (UniProt P23977). Briefly: Inhibition of [3H]mazindol binding to dopamine transporter (DAT) of rat striatal membranes at 100 uM. The class given is cell membranes. The note with it: Membrane.
The species named for assay [7] is Rattus norvegicus. Briefly: Inhibition of high affinity uptake of [3H]- -dopamine into striatal nerve endings (synaptosomes) at 300 uM. The class given is functional. The note with it: Brain.

T1 sequence (P23977 whole entry): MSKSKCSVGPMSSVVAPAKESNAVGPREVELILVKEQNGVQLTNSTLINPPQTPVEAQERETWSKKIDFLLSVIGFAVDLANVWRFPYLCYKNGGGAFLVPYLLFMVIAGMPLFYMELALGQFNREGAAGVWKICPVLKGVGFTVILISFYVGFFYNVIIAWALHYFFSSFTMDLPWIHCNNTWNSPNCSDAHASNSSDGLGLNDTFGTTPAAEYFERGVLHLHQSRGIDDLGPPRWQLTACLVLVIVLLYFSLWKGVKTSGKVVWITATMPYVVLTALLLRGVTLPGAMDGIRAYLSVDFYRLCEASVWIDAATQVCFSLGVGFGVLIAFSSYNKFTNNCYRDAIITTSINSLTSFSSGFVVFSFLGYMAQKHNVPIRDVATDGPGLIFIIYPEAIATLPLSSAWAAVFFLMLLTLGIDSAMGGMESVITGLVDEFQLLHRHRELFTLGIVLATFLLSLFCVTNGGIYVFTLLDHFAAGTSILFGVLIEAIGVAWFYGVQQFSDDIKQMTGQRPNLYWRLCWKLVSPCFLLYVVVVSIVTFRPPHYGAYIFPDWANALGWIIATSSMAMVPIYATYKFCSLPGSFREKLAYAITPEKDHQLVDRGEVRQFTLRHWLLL
Sodium-dependent dopamine transporter (Rattus norvegicus), sequence (P23977 whole entry): as above

What is called Ki is the dissociation constant of the complex between target and ligand, obtained from inhibition or displacement. Low values mean tighter binding, high ones weaker binding. With `COC(=O)[C@@H]1C2CC[C@@H](C[C@@H]1OC(=O)c1ccccc1)N2S(=O)(=O)N=C=O`, the values for the Ki (in assay [1]; in the assay listed under Rattus norvegicus [2]) were 0.12 µM and 0.16 µM, respectively.

Turning to `COC(=O)[C@@H]1C2CCC(C[C@@H]1OC(=O)c1ccccc1)N2S(=O)(=O)C(F)(F)F` (some centres undefined), the inhibitory constant (Ki) worked out at 0.33 µM in assay [3] and 0.76 µM in the assay filed under Rattus norvegicus [4].

As for `COC(=O)[C@@H]1C2CCC(C[C@@H]1OC(=O)c1ccccc1)N2S(C)(=O)=O` (some centres undefined), the inhibition constant (Ki) in assay [1] was 1.29 µM; in the assay filed under Rattus norvegicus [5], 1.97 µM.

`COC(=O)[C@@H]1C2CCC(C[C@@H]1OC(=O)c1ccccc1)N2S(=O)(=O)c1ccc(OC)cc1` (some centres undefined): the Ki in assay [3] turned out to be 6.82 µM; in the assay filed under Rattus norvegicus [4] it was 16.4 µM.

For `COC(=O)[C@@H]1C2CCC(C[C@@H]1OC(=O)c1ccccc1)N2S(=O)(=O)c1ccccc1` (some centres undefined), the Ki in assay [3] was 20.8 µM; in the assay listed under Rattus norvegicus [4], 61 µM.

The term inhibition denotes the percentage by which the read-out fell short of the control. Consider `COC(=O)[C@@H]1C2CCC(C[C@@H]1OC(=O)c1ccccc1)N2S(=O)(=O)c1ccc([N+](=O)[O-])cc1` (some centres undefined), for which the values for the Ki (in assay [3]; in the assay listed under Rattus norvegicus [4]) were 5.72 µM and 18.8 µM, respectively. For the same compound, the inhibition was 80% in assay [6] and 72% in the assay listed under Rattus norvegicus [7].
